In assay [1] the target is T1, hAR (Homo sapiens, UniProt P10275).
T1 construct: made in house; host or cells: baculovirus/Sf9 insect cells
T1 sequence (P10275 1-920): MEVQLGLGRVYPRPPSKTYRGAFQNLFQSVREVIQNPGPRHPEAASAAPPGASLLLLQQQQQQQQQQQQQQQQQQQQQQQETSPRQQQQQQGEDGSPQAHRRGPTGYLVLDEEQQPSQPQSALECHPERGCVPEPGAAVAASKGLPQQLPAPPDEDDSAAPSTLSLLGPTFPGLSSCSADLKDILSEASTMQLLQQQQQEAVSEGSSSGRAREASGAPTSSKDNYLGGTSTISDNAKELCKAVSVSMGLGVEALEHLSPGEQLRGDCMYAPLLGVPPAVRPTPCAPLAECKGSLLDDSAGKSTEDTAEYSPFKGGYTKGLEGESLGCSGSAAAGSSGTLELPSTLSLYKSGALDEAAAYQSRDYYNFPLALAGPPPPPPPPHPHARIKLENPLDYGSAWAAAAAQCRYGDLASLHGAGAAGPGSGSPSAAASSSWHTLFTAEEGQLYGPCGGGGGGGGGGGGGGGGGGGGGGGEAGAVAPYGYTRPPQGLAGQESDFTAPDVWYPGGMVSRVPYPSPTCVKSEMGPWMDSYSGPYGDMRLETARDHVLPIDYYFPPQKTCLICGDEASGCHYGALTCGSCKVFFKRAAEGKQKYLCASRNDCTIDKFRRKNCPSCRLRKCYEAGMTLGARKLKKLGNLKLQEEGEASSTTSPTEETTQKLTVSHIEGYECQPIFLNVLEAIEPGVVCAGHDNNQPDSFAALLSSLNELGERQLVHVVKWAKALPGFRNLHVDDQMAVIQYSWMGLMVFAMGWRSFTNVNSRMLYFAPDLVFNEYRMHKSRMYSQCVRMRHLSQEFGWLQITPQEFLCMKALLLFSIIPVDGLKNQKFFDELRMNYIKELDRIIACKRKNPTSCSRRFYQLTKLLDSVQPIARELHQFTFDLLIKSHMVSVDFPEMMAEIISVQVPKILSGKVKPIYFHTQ
Put plainly: Competitive binding analysis on baculovirus/Sf9 generated hAR extracts with 3H-DHT tracer. The conditions noted are these: 1 nM 3H-DHT, one hour at 4° C., mean of multiple tests. As to the method:
The description below describes how the assay was carried out.
Competitive binding analysis was performed on baculovirus/Sf9 generated hAR extracts in the presence or absence of different concentrations of test agent and a fixed concentration of ^3H-dihydrotestosterone (^3H-DHT) as tracer. This binding assay method is a modification of a protocol previously described (Liao S., et. al. J. Steroid Biochem. 20:11-17 1984). Briefly, progressively decreasing concentrations of compounds are incubated in the presence of hAR extract (Chang et al. P.N.A.S. Vol. 89, pp. […], 1992), hydroxylapatite, and 1 nM ^3H-DHT for one hour at 4° C. Subsequently, the binding reactions are washed three times to completely remove excess unbound ^3H-DHT. hAR bound ^3H-DHT levels are determined in the presence of compounds (i.e. competitive binding) and compared to levels bound when no competitor is present (i.e. maximum binding). Compound binding affinity to the hAR is expressed as the concentration of compound at which one half of the maximum binding is inhibited.

Assay [2] concerns the target T2, androgen receptor (Homo sapiens, UniProt P10275, Q868H).
T2 construct: a human breast tumor cell line expressing androgen receptor; endogenous in cells; host or cells: MDA-MB453-MMTV clone 54-19 (only the MMTV-luciferase reporter was transfected)
T2 sequence (P10275 1-920 Q868H): T1 sequence (P10275 1-920) with Q868H
The experiment in a line: AR antagonist cell assay (MDA-MB453-MMTV clone 54-19, luciferase reporter). In kind it is cell-based. The following applies: 100 pM DHT, 17 hr, mean of multiple tests. Here is the method:
The compounds ability to antagonize the effects of androgen on the androgen receptor were determined in a whole cell assay as described immediately below.
Experimental Procedure for AR Antagonist Cell Assay
This cell line is a stable transfected cell line with MDA-MB453 cell background (a human breast tumor cell line expressing androgen receptor). A MMTV minimal promoter containing ARE was first cloned in front of a firefly luciferase reporter gene. Then the cascade was cloned into transfection vector pUV120puro. Electroporation method was used for transfecting MDA-MB-453 cell. Puromycin resistant stable cell line was selected.
Cell Culture Media and Reagents:
Culture medium: DMEM (high glucose, Gibco cat #: 11960-044), 10% FBS, and 1% L-glutamine
Plating medium: DMEM (phenol red free), 10% charcoal treated HyClone serum, 1% L-glutamine
Assay medium: DMEM (phenol red free), 1% charcoal treated HyClone serum, 1% L-glutamine, and 1% penicillin/streptomycin
3× luciferase buffer: 2% beta-mercaptoethanol, 0.6% ATP, 0.0135% luciferine in cell lysis buffer
• 1. Cells are maintained in culture medium, splitting cells when they reach 80-90% confluence • 2. To test compounds, 10,000 cells/well are plated to opaque 96 cell culture plate in 100 ul/well plating medium, culture for overnight at 37° C. in cell culture incubator • 3. Carefully remove plating medium, then add 80 ul/well of pre-warmed assay medium, add 10 ul/well testing compound (final concentration at) 1000 nM, 200 nM, 40 nM, 8 nM, 1.6 nM, and 0.32 nM), incubate at 37° C. for 30 minutes • 4. Add 10 ul/well freshly prepared DHT (final concentration at 100 pM) to each well, incubate at 37° C. for 17 hr (overnight) • 5.
The results are reported as the mean of multiple tests as described below (the numbers of tests are indicated in the footnote). N.D. denotes that the compound was not tested.
(Reporter assays use an easily measured gene product as a stand-in for the process of interest.)

Where [3] appears, read: MDA-MB453-MMTV clone 54-19 cells, read-out: AR Cell IC50.
Setting [4] is: hAR extract, read-out: AR Binding IC50.
Setting [5] is: AR Cell IC50, MDA-MB453-MMTV clone 54-19 cells.

SMILES strings stand for the structures. Substitutions are numbered along the chain they refer to. Where two headings read alike, the source gives them in different places.

What is called IC50 is the concentration that gives 50% inhibition. In the case of `CO[C@H]1CCC[C@H]1Oc1ccc(C#N)c(Cl)c1` (relative stereo) [Example 34, 2-Chloro-4-(cis-2-methoxy-cyclopentyloxy)-benzonitrile], the IC50 in assay [1] (AR Binding IC50, hAR extract) is 172 nM; in assay [2] (setting [3]), 340 nM.

As to `CO[C@H]1CCCC[C@H]1Oc1ccc(C#N)c(Cl)c1` (relative stereo) [Example 36, 2-Chloro-4-(cis-2-methoxy-cyclohexyloxy)-benzonitrile], the IC50 was 123 nM in assay [1] (AR Binding IC50, hAR extract) and 300 nM in assay [2] (setting [3]).

`CO[C@H]1CCCC[C@@H]1Oc1ccc(C#N)c(C(F)(F)F)c1` (relative stereo) [Example 70]: the IC50 in assay [1] (setting [4]) was determined as 158 nM; in assay [2] (setting [5]) it was 10 nM.

Turning to `CC1CCCC(Oc2ccc(C#N)cc2Cl)C1C` (single isomer, unassigned) [Example 64, 3-Chloro-4-(2,3-dimethyl-cyclohexyloxy)-benzonitrile], the concentration for half-maximal inhibition (IC50) in assay [1] (setting [4]) stood at 119 nM; in assay [2] (setting [3]), 217 nM.

As to `N#Cc1ccc(O[C@@H]2CCCC[C@H]2C#N)cc1C(F)(F)F` (single isomer, unassigned) [Example 73, (trans)-(+)-4-(2-Cyano-cyclohexyloxy)-2-trifluoromethyl-benzonitrile], the IC50 in assay [1] (AR Binding IC50, hAR extract) worked out at 61 nM; in assay [2] (setting [3]), 196 nM.

Regarding `CC1(O)C[C@@H]2C[C@H]1CC2Oc1ccc(C#N)c(C(F)(F)F)c1` (stereo in doubt) [Example 1, 4-(5-Hydroxy-5-methyl-bicyclo[2.2.1]hept-2-yloxy)-2-trifluoromethyl-benzonitrile], the figures for the IC50 in assay [1] (setting [4]) and in assay [2] (setting [5]) were 655 nM and 80 nM, respectively.

Take `N#Cc1ccc(O[C@H]2CC3CC[C@@H]2C3)cc1Cl` (stereo in doubt) [Example 24, 4-(R)-(Bicyclo[2.2.1]hept-2-yloxy)-2-chloro-benzonitrile]: the IC50 in assay [1] (AR Binding IC50, hAR extract) amounted to 106 nM; in assay [2] (setting [5]), 15 nM.

With `N#Cc1ccc(O[C@@H]2CC3CC[C@@H]2C3)cc1Cl` (stereo in doubt) [Example 25, 4-(S)-(Bicyclo[2.2.1]hept-2-yloxy)-2-chloro-benzonitrile], the 50% inhibitory concentration (IC50) in assay [1] (AR Binding IC50, hAR extract) was 82 nM; in assay [2] (setting [3]), < 0.32 nM.

Turning to `N#Cc1ccc(O[C@H]2CCCCC2c2ccccc2)cc1Cl` (stereo in doubt) [Example 33, 2-Chloro-4-(2-(S)-phenyl-(S)-cyclohexyloxy)-benzonitrile], the IC50 in assay [1] (AR Binding IC50, hAR extract) turned out to be 60 nM; in assay [2] (setting [3]), 485 nM.

For the compound `N#Cc1ccc(O[C@H]2CCCC[C@@H]2c2ccccc2)cc1C(F)(F)F` [Example 3, 4-(2-(R)-Phenyl-1-(S)-cyclohexyloxy)-2-trifluoromethyl-benzonitrile], the IC50 in assay [1] (AR Binding IC50, hAR extract) is 73 nM; in assay [2] (setting [3]), > 1000 nM.

For the compound `C=CCC1(Oc2ccc(C#N)c(C(F)(F)F)c2)CCCCC1` [Example 4, 4-(1-Allyl-cyclohexyloxy)-2-trifluoromethyl-benzonitrile], the IC50 in assay [1] (AR Binding IC50, hAR extract) is 48 nM; in assay [2] (setting [3]), > 1000 nM.

For the compound `CCC1CCCCC1Oc1ccc(C#N)c(C(F)(F)F)c1` (stereo not shown) [Example 7, 4-(2-Ethyl-cyclohexyloxy)-2-trifluoromethyl-benzonitrile], the IC50 was 125 nM in assay [1] (setting [4]) and 329 nM in assay [2] (setting [3]).

Turning to `C[C@@H]1CCCC[C@@H]1Oc1ccc(C#N)c(C(F)(F)F)c1` [Example 9, (1S,2R)-4-(2-Methyl-cyclohexyloxy)-2-trifluoromethyl-benzonitrile], the IC50 in assay [1] (AR Binding IC50, hAR extract) amounted to 22 nM; in assay [2] (setting [3]), 751 nM.

Consider `N#Cc1ccc(OC2CCCC2)cc1C(F)(F)F` [Example 10], for which the IC50 in assay [1] (setting [4]) was determined as 156 nM; in assay [2] (setting [3]), 605 nM.

Take `N#Cc1ccc(OC2CCCCC2)cc1C(F)(F)F` [Example 11, 4-Cyclohexyloxy-2-trifluoromethyl-benzonitrile]: the IC50 in assay [1] (setting [4]) amounted to 390 nM; in assay [2] (setting [5]) it was 0.5 nM.

For `CC1CCCC(C)C1Oc1ccc(C#N)c(C(F)(F)F)c1` (stereo not shown) [Example 12, 4-(2,6-Dimethyl-cyclohexyloxy)-2-trifluoromethyl-benzonitrile], the half-inhibitory concentration (IC50) in assay [1] (AR Binding IC50, hAR extract) was 73 nM; in assay [2] (setting [3]), > 1000 nM.

As for `CCCCC1(Oc2ccc(C#N)c(Cl)c2)CCCC1` [Example 21, 4-(1-Butyl-cyclopentyloxy)-2-chloro-benzonitrile], the IC50 is 206 nM in assay [1] (setting [4]) and > 1000 nM in assay [2] (setting [3]).

For the compound `CCC1CCCCC1Oc1ccc(C#N)c(Cl)c1` (stereo not shown) [Example 22, 2-Chloro-4-(2-ethyl-cyclohexyloxy)-benzonitrile], the IC50 in assay [1] (AR Binding IC50, hAR extract) is 71 nM; in assay [2] (setting [3]), > 1000 nM.

Regarding `CC1CCC(Oc2ccc(C#N)c(Cl)c2)C1` (stereo not shown) [Example 23, 2-Chloro-4-(3-methyl-cyclopentyloxy)-benzonitrile], the IC50 was determined as 145 nM in assay [1] (setting [4]) and 202 nM in assay [2] (setting [3]).

Consider `N#Cc1ccc(OC2CCCC(O)C2)cc1Cl` (stereo not shown) [Example 26, 2-Chloro-4-(3-hydroxy-cyclohexyloxy)-benzonitrile], for which the IC50 in assay [1] (setting [4]) is 404 nM; in assay [2] (setting [5]), 46 nM.

(Values after patent US7670613B2, “Androgen modulators” (Pfizer Inc., priority 2004, dated 2010).)
